Measurements taken from PMC11106742, “Computational Design of Cyclic Peptide Inhibitors of a Bacterial Membrane Lipoprotein Peptidase” (ACS Chemical Biology, 2024).
Converted amounts (≈) assume the structure as drawn. Numbered stars: 1 amine (or outer) side, 2 acyl side, 3 side chain; on linkers, the order of the positions; unused ones are H or OH. Bridge positions count the residues as written; N and C are the ends. Square brackets hold non-standard residues; d marks the D form. Peptide text beside a SMILES is read from it. * marks the point of attachment. X4 = CCCCCCCCN([C@H](C)C(=O)[*:2])[*:1]; aIle = CC[C@@H](C)[C@H](N)C(=O)O; aThr = C[C@H](O)[C@H](N)C(=O)O; NMeL = CN[C@@H](CC(C)C)C(=O)O; Heptanoyl = CCCCCCC(=O)*; Octanoyl = CCCCCCCC(=O)*; Hexanoyl = CCCCCC(=O)*; Pentanoyl = CCCCC(=O)*; Propionyl = CCC(=O)*; βAla = NCCC(=O)O

Assays:
[1] = tested on: E. coli; format: cell-based
Source text: Initially, a library of six lipid amide analogues was synthesized via cyclization between the side-chain epsilon -NH2 of an N-terminal L-lysine residue and the C-terminus of an L-serine residue.
Each analogue was acylated with a simple linear lipid, ranging from C3 to C8 in length (Figure S1). To further probe the potential of the amide isostere, five additional analogues were synthesized in which the D- or L-stereoisomer of cationic amino acids diaminobutyric acid (Dab), ornithine (Orn), or Lys were used as the N-terminal cyclization partner. Each analogue was acylated with an octanoyl tail and the subsequent effects of ring size and/or stereochemistry, as well as lipid length, determined by assessing antimicrobial activity against E. coli. Peptides were also screened against S. aureus.
Unfortunately, each analogue was unable to […]

[2] = biological target: T1, PaLspA (Pseudomonas aeruginosa, UniProt Q9HVM5); experiment: Enzyme inhibition assay of rationally designed analogues with PaLspA; format: biochemical; conditions: peptide incubated with PaLspA
T1 construct: made in house
T1 sequence (Q9HVM5 1-169): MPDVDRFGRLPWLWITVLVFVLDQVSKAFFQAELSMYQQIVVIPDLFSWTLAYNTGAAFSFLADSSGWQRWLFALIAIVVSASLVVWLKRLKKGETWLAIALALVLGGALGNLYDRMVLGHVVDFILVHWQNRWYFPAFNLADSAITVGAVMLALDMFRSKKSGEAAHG
Method: Additionally, C3 – C5 (peptides S5 – S7) and C7-Gbm(NLys) (peptide S9) amide analogues were submitted for enzyme inhibition assays to determine if these cyclic amide isosteres could still inhibit the target enzyme, LspA. Each peptide was incubated with PaLspA and the observed reduction in enzyme activity reported. […]
found for peptides S5 and S9 (C3 and C7-Gbm(NLys). […]
Four linear globomycin analogues were synthesized to determine the necessity of the cyclic core.
The pentapeptide core of NMeLeu-Ile-Ser-Thr-Gly-OH was synthesized as both the natural allo-version and the cheaper non-allo version in which native residues allo-L-isoleucine and allo-L-threonine were replaced by their cheaper non-allo derivatives. Each linear pentapeptide was synthesized in both its acylated, octyl-derivative and non-acylated form and submitted for analysis of its PaLspA inhibitory activity. No PaLspA inhibition was observed, confirming the importance of globomycin’s cyclic core for antimicrobial activity.

[3] = tested on: A. baumannii AB17978; experiment: microbe, parasite or virus in culture; format: cell-based, Acinetobacter baumannii; conditions: Acinetobacter baumannii; A. baumannii AB17978; cation-adjusted Mueller-Hinton broth, 16 to 24 h, 37 °C; read-out: MIC
Method: (§1) MIC values were determined in cation-adjusted Mueller-Hinton broth using the broth microdilution method according to CLSI guidelines. Plates were incubated for 16 to 24 h at 37 °C.
(§2) Six biological replicates were performed across three different 2-fold dilution series, starting at concentration of 100 µg/ml, 80 µg/ml or 64 µg/ml. The lowest concentration of antimicrobial inhibiting growth was taken as the MIC. This was established by visual inspection of the medium after the incubation period with a lack of turbidity of the growth medium indicating no growth.[3] […]

[4] = tested on: A. baumannii AB5075; experiment: microbe, parasite or virus in culture; format: cell-based, Acinetobacter baumannii; conditions: Acinetobacter baumannii; A. baumannii AB5075; cation-adjusted Mueller-Hinton broth, 16 to 24 h, 37 °C; read-out: MIC
Method: as §1, §2

[5] = biological target: T1, PaLspA; experiment: biochemical
Method: These analogues were tested for activity against PaLspA using an in vitro fluorescence resonance energy transfer (FRET) activity assay.[21] LspA inhibition was detected by a change in fluorescence upon cleavage of a FRET peptide substrate containing an N-terminal quencher moiety and a C-terminal fluorophore.
(A) Structures of G2a and G2d. (B) Results of the FRET dose–response assays. PaLspA concentration was 40 nM, FRET substrate concentration was 50 μM, and the concentration of inhibitors globomycin, G2a, and G2d ranged from 0–3,000 nM. (C) SDS-PAGE gels and quantitation of the PaLspA gel-shift dose–response assays. ppICP concentration was 12 μM, DOPG concentration was 600 μM, and Lgt concentration was 1.2 μM. The Lgt-catalyzed reaction was allowed to proceed for 60 min at 37 °C, after which inhibitors (0–1000 nM) were added. The PaLspA reaction was initiated by the addition of 100 nM enzyme. The LspA reaction was allowed to proceed for 30 min at 37 °C before being quenched with SDS-PAGE loading buffer (62.5 mM Tris/HCl pH 6.8, 2.5% (w/v) SDS, 0.002% (w/v) bromophenol blue, 0.5 M β-mercaptoethanol, 10% (v/v) glycerol). Quantitation of the gel-shift assays was performed using Image Lab, and data were plotted using GraphPad Prism.
Materials: All reagents were obtained from commercial sources and used without additional purification. All aqueous solutions were prepared using ultrapure laboratory grade water (deionized, filtered, and sterilized) obtained from an in-house ELGA water purification system. […]
Expression and purification of PaLspA, Lgt, EcLspA and ppICP: PaLspA, Lgt and pre-proICP (ppICP) were expressed and purified using previously published protocols (Vogely et al, 2016).[1] EcLspA was expressed and purified as described for PaLspA, with the following modification. The lysis buffer was 50 mM Hepes pH 7.5, 150 mM NaCl, 1 mM TCEP, 10 %(v/v) glycerol. Isolated membranes, containing EcLspA, were solubilized with 1 %(v/v) FC12 for 2 h at […]

[6] = tested on: P. aeruginosa 950; experiment: microbe, parasite or virus in culture; format: cell-based, Pseudomonas aeruginosa; conditions: Pseudomonas aeruginosa; P. aeruginosa 950; cation-adjusted Mueller-Hinton broth, 16 to 24 h, 37 °C; read-out: MIC
Method: as §1, §2

[7] = tested on: E. coli ATCC25922; experiment: microbe, parasite or virus in culture; format: cell-based, Escherichia coli; conditions: Escherichia coli; E. coli ATCC25922; cation-adjusted Mueller-Hinton broth, 16 to 24 h, 37 °C; read-out: MIC
Method: as §1, §2

| SMILES | MIC [1] [µg/mL] | reduction in PaLspA enzyme activity (in words) [2] | also measured |
| --- | --- | --- | --- |
| CCCCCCCC(=O)N[C@H]1CC=CCNC(=O)[C@H](CO)NC(=O)[C@H](CO)NC(=O)[C@H]([C@H](C)CC)NC(=O)[C@H](CC(C)C)N(C)C1=O [S13, C8-Globomycin(RCM)] | > 200 |  | antimicrobial activity (in words) ([1]; against Gram-negative bacteria): void of antimicrobial activity |
| CCCCCCC(=O)N[C@H]1CCCCNC(=O)[C@H](CO)NC(=O)[C@H](CO)NC(=O)[C@H]([C@H](C)CC)NC(=O)[C@H](CC(C)C)N(C)C1=O [S9, C7-Globomycin(N-Lys)] (Heptanoyl-K[NMeL][aIle]SS; lactam 1-C) | 100 (≈ 153 µM) | moderate decrease in enzyme activity |  |
| CCCCCC[C@H]1OC(=O)CNC(=O)[C@H]([C@H](C)O)NC(=O)[C@H](CO)NC(=O)[C@H]([C@H](C)CC)NC(=O)[C@H](CC(C)C)N(C)C(=O)[C@@H]1C [globomycin, reference compound] |  |  | MIC [3]: 16 µg/mL (≈ 24.4 µM); MIC [4]: 32 µg/mL (≈ 48.8 µM); IC50 [5]: 40 nM; MIC [6]: 16 µg/mL (≈ 24.4 µM); MIC [7]: 10 µg/mL (≈ 15.2 µM) |
| CCCCCC(=O)N[C@H]1CCCCNC(=O)[C@H](CO)NC(=O)[C@H](CO)NC(=O)[C@H]([C@H](C)CC)NC(=O)[C@H](CC(C)C)N(C)C1=O [S8, C6-Globomycin(N-Lys)] (Hexanoyl-K[NMeL][aIle]SS; lactam 1-C) | > 200 |  |  |
| CC[C@H](C)[C@H](NC(=O)[C@H](CC(C)C)NC)C(=O)N[C@@H](CO)C(=O)N[C@H](C(=O)NCC(=O)O)[C@@H](C)O [S2, Non-alloHN-Globomycin] (H-[NMeL]ISTG-OH) | > 200 |  |  |
| CC[C@@H](C)[C@H](NC(=O)[C@H](CC(C)C)NC)C(=O)N[C@@H](CO)C(=O)N[C@H](C(=O)NCC(=O)O)[C@H](C)O [S1, HN-Globomycin] (H-[NMeL][aIle]S[aThr]G-OH) | > 200 |  |  |
| CCCCCCCCN1C(=O)CCNC(=O)[C@H]([C@H](C)O)NC(=O)[C@H](CO)NC(=O)[C@H]([C@H](C)CC)NC(=O)[C@H](CC(C)C)N(C)C(=O)[C@H]1C [G2b] (cyclo([NMeL][aIle]S[aThr][βAla][X4])) |  |  | IC50 [5]: 430 ± 50 nM |
| CCC(=O)N[C@H]1CCCCNC(=O)[C@H](CO)NC(=O)[C@H](CO)NC(=O)[C@H]([C@H](C)CC)NC(=O)[C@H](CC(C)C)N(C)C1=O [S5, C3-Globomycin(N-Lys)] (Propionyl-K[NMeL][aIle]SS; lactam 1-C) | > 200 | moderate decrease in enzyme activity |  |
| CCCCC(=O)N[C@H]1CCCCNC(=O)[C@H](CO)NC(=O)[C@H](CO)NC(=O)[C@H]([C@H](C)CC)NC(=O)[C@H](CC(C)C)N(C)C1=O [S7, C5-Globomycin(N-Lys)] (Pentanoyl-K[NMeL][aIle]SS; lactam 1-C) | > 200 | no reduction in activity |  |
| CCCCCCCC(=O)N(C)[C@@H](CC(C)C)C(=O)N[C@H](C(=O)N[C@@H](CO)C(=O)N[C@H](C(=O)NCC(=O)O)[C@@H](C)O)[C@@H](C)CC [S4, Non-alloOctanoyl-Globomycin] (Octanoyl-[NMeL]ISTG-OH) | > 200 |  |  |
